Laboratory results published in paper PMC5063900, “A phase 1 study of the safety, tolerability, pharmacokinetics, and pharmacodynamics of TAK-063, a selective PDE10A inhibitor” (Psychopharmacology, 2016).
Marks after values point to notes of the source that are not given here.

How the values were obtained:
[1] = Plasma and urine pharmacokinetics after single oral dose under fasting conditions; assay type: in vivo, human; details: for AUC(0-inf) / T 1/2 / C max / T max / CL/F (oral clearance) / Vz/F (volume of distribution) / CL/F / Vz/F: plasma
Method: Healthy Japanese and non-Japanese subjects between 18 and 55 years of age were recruited to participate in the study. Criteria for exclusion included prior treatment with any investigational compound within 30 days of the first TAK-063 dose, a positive test for drugs of abuse or nicotine, and an increased risk for suicide. Subjects were randomized into 1 of 6 dose cohorts (3, 10, 30, 100, 300, and 1000 mg), with each cohort containing 11 TAK-063 subjects (five Japanese, six non-Japanese) and three placebo subjects (one Japanese, two non-Japanese) receiving a single dose under fasting conditions. Following a washout period of 7 days, subjects in cohort 3 (100 mg) received the same dose (100 mg) but under fed conditions. Serial plasma and urine samples were collected from all subjects prior to dosing and at specific time points or intervals up to 96 h postdose. Pharmacokinetic samples were processed immediately and frozen at −20 °C as duplicate sets. Plasma concentrations of TAK-063 and its metabolite M-I were subsequently measured by validated liquid chromatography-tandem mass spectrometry with a validated range of 0.5 to 1000 ng/mL for both analytes. The PK parameters analyzed for TAK-063 and its metabolite M-I in plasma and urine included area under the plasma concentration-time curve from time 0 to infinity (AUC (0-inf)), maximum observed plasma concentration (C max), time to reach C max (T max), terminal elimination half-life (T 1/2), oral clearance (CL/F), volume of distribution (Vz/F), and renal clearance (CLr). Metabolite-to-parent ratios were estimated from C max and AUC (0-inf) data. All statistical analyses were generated using SAS Version 9.2 (SAS, Cary, NC, USA). The PK parameters were derived using non-compartmental methods with WinNonlin Enterprise Version 6.3 (Pharsight Corp., Mountain View, CA, USA). Frequency or descriptive statistics were used for summary of data. Where indicated, percent coefficient of variation was included in the summary of continuous data. All statistical tests were 2-tailed at α = 0.05 level for significance unless otherwise stated. A power model was used to evaluate dose proportionality by race for fasted subjects; in the event of no observed race effect, dose proportionality was assessed for all subjects. To evaluate the food effect, a paired t test was performed on T max and natural log-transformed C max, and AUCs. An ANCOVA model with baseline scores and race as covariates was used to assess the effects of TAK-063 on CNSVS domain scores.

[2] = Food effect on pharmacokinetics, 100 mg fed vs fasting; assay type: in vivo, human
Method: Healthy Japanese and non-Japanese subjects between 18 and 55 years of age were recruited to participate in the study. Criteria for exclusion included prior treatment with any investigational compound within 30 days of the first TAK-063 dose, a positive test for drugs of abuse or nicotine, and an increased risk for suicide. Subjects were randomized into 1 of 6 dose cohorts (3, 10, 30, 100, 300, and 1000 mg), with each cohort containing 11 TAK-063 subjects (five Japanese, six non-Japanese) and three placebo subjects (one Japanese, two non-Japanese) receiving a single dose under fasting conditions. […] Plasma concentrations of TAK-063 and its metabolite M-I were subsequently measured by validated liquid chromatography-tandem mass spectrometry with a validated range of 0.5 to 1000 ng/mL for both analytes. The PK parameters analyzed for TAK-063 and its metabolite M-I in plasma and urine included area under the plasma concentration-time curve from time 0 to infinity (AUC (0-inf)), maximum observed plasma concentration (C max), time to reach C max (T max), terminal elimination half-life (T 1/2), oral clearance (CL/F), volume of distribution (Vz/F), and renal clearance (CLr). […] A power model was used to evaluate dose proportionality by race for fasted subjects; in the event of no observed race effect, dose proportionality was assessed for all subjects. […]

[3] = fasting, all subjects, TAK-063 300 mg (n = 8), arithmetic mean (% CV)
[4] = fasting, all subjects, TAK-063 300 mg (n = 11; TAK-063 n = 8), arithmetic mean (% CV)
[5] = fasting, all subjects, TAK-063 1000 mg (n = 11), arithmetic mean (% CV)
[6] = non-Japanese subjects, TAK-063 3 mg (n = 6), arithmetic mean
[7] = non-Japanese subjects, TAK-063 3 mg (n = 6; M-I n = 5), arithmetic mean
[8] = non-Japanese subjects, TAK-063 10 mg (n = 6), arithmetic mean
[9] = non-Japanese subjects, TAK-063 30 mg (n = 6), arithmetic mean
[10] = non-Japanese subjects, TAK-063 100 mg (n = 5), arithmetic mean
[11] = non-Japanese subjects, TAK-063 100 mg (n = 6; TAK-063 n = 5), arithmetic mean
[12] = non-Japanese subjects, TAK-063 300 mg (n = 4), arithmetic mean
[13] = non-Japanese subjects, TAK-063 300 mg (n = 6; TAK-063 n = 4), arithmetic mean
[14] = non-Japanese subjects, TAK-063 1000 mg (n = 6), arithmetic mean

Structure (SMILES): COc1cn(-c2ccc(-n3cccn3)cc2F)nc(-c2ccnn2-c2ccccc2)c1=O [TAK-063]
- AUC(0-inf) [1, 3]: 1900.8 (39)^d ng·h/mL
- T 1/2 [1, 3]: 20.2 (26)^d h
- C max ([1]; fasting, all subjects, TAK-063 300 mg (n = 11), arithmetic mean (% CV)): 100.3 (18) ng/mL
- T max ([1]; fasting, all subjects, TAK-063 300 mg (n = 11), median (minimum, maximum)): 4.0 (1.9, 8.0) h
- CL/F (oral clearance) [1, 4]: 185.9 (48)^d L/h
- Vz/F (volume of distribution) [1, 4]: 5570.7 (57)^d L
- AUC(0-inf) [1, 5]: 5788.1 (81) ng·h/mL
- C max [1, 5]: 245.8 (34) ng/mL
- CL/F (oral clearance) [1, 5]: 232.0 (42) L/h
- T 1/2 [1, 5]: 14.6 (43) h
- Vz/F (volume of distribution) [1, 5]: 5277.2 (81) L
- T max ([1]; fasting, all subjects, TAK-063 1000 mg (n = 11), median (minimum, maximum)): 4.0 (2.0, 12.0) h
- C max [1, 6]: 8.2 ng/mL
- CL/F [1, 6]: 15.2 L/h
- Vz/F [1, 6]: 521.6 L
- T max ([1]; non-Japanese subjects, TAK-063 3 mg (n = 6), median): 5.0 h
- AUC(0-inf) [1, 7]: 240.4 ng·h/mL
- T 1/2 [1, 7]: 24.2 h
- AUC(0-inf) [1, 8]: 507.9 ng·h/mL
- C max [1, 8]: 23.8 ng/mL
- CL/F [1, 8]: 21.2 L/h
- T 1/2 [1, 8]: 21.3 h
- Vz/F [1, 8]: 627.3 L
- T max ([1]; non-Japanese subjects, TAK-063 10 mg (n = 6), median): 5.0 h
- AUC(0-inf) [1, 9]: 983.9 ng·h/mL
- C max [1, 9]: 39.5 ng/mL
- CL/F [1, 9]: 31.4 L/h
- T 1/2 [1, 9]: 22.6 h
- Vz/F [1, 9]: 1009.2 L
- T max ([1]; non-Japanese subjects, TAK-063 30 mg (n = 6), median): 5.0 h
- AUC(0-inf) [1, 10]: 1364.9 ng·h/mL
- T 1/2 [1, 10]: 27.8 h
- C max ([1]; non-Japanese subjects, TAK-063 100 mg (n = 6), arithmetic mean): 72.7 ng/mL
- T max ([1]; non-Japanese subjects, TAK-063 100 mg (n = 6), median): 3.5 h
- CL/F [1, 11]: 84.0 L/h
- Vz/F [1, 11]: 3213.2 L
- AUC(0-inf) [1, 12]: 2165.7 ng·h/mL
- T 1/2 [1, 12]: 20.0 h
- C max ([1]; non-Japanese subjects, TAK-063 300 mg (n = 6), arithmetic mean): 102.1 ng/mL
- T max ([1]; non-Japanese subjects, TAK-063 300 mg (n = 6), median): 3.5 h
- CL/F [1, 13]: 159.0 L/h
- Vz/F [1, 13]: 4731.5 L
- AUC(0-inf) [1, 14]: 6502.0 ng·h/mL
- C max [1, 14]: 230.7 ng/mL
- CL/F [1, 14]: 230.6 L/h
- T 1/2 [1, 14]: 17.0 h
- Vz/F [1, 14]: 6380.3 L
- T max ([1]; non-Japanese subjects, TAK-063 1000 mg (n = 6), median): 4.0 h
- CLr (renal clearance) ([1]; urine, Japanese subjects, TAK-063 30 mg (n = 5), arithmetic mean): 4.0 mL/h
- CLr (renal clearance) ([1]; urine, Japanese subjects, TAK-063 100 mg (n = 5), arithmetic mean): 7.9 mL/h
- CLr (renal clearance) ([1]; urine, Japanese subjects, TAK-063 300 mg (n = 5), arithmetic mean): 5.9 mL/h
- CLr (renal clearance) ([1]; urine, Japanese subjects, TAK-063 1000 mg (n = 5), arithmetic mean): 6.8 mL/h
- Renal elimination ([1]; urine, fasting): negligible
- CLr (renal clearance) ([1]; urine, fasting, all subjects, TAK-063 30 mg (n = 11), arithmetic mean (% CV)): 2.4 (123) mL/h
- CLr (renal clearance) ([1]; urine, fasting, all subjects, TAK-063 100 mg (n = 11), arithmetic mean (% CV)): 5.9 (78) mL/h
- CLr (renal clearance) ([1]; urine, fasting, all subjects, TAK-063 300 mg (n = 11), arithmetic mean (% CV)): 6.1 (63) mL/h
- CLr (renal clearance) ([1]; urine, fasting, all subjects, TAK-063 1000 mg (n = 11), arithmetic mean (% CV)): 6.8 (56) mL/h
- CLr ([1]; urine, non-Japanese subjects, TAK-063 30 mg (n = 6), arithmetic mean (% CV)): 1.1 (179) mL/h
- CLr ([1]; urine, non-Japanese subjects, TAK-063 100 mg (n = 6), arithmetic mean (% CV)): 4.2 (84) mL/h
- CLr ([1]; urine, non-Japanese subjects, TAK-063 300 mg (n = 6), arithmetic mean (% CV)): 6.2 (63) mL/h
- CLr ([1]; urine, non-Japanese subjects, TAK-063 1000 mg (n = 6), arithmetic mean (% CV)): 6.8 (61) mL/h
- Median T max ([2]; fed (standard meal)): 6 h
- Oral bioavailability, fed relative to fasting ([2]; standard meal): approximately 2 fold
